# Results from PubChem BioAssay AID1963966 (Molecular Pharmacology Branch, DTP, NCI, 2024).
# System: 935938-334-R-J1-PDC spheroids with HUVEC/MSC, viability
# Experiment: Anticancer human tumor 935938-334-R-J1-PDC patient-derived small intestine adenocarcinoma cell line growth inhibition [PI3K]
# Settings: for IC50: curve of first compound; for viability, T/C: stronger effect = lower value
# Outline: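 Complex 3D spheroids (cancer cells + endothelial HUVEC + mesenchymal stem cells); drug pairs of targeted agent x inavolisib/alpelisib/duvelisib/copanlisib; half-log series from ~Cmax, max 10 microM if Cmax unknown; endpoint viability.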
# [1] = second compound 0.00316 µM, first compound 0.0316 µM
# [2] = second compound 0.00316 µM, first compound 0.1 µM
# [3] = second compound 0.00316 µM, first compound 0.316 µM
# [4] = second compound 0.00316 µM, first compound 1 µM
# [5] = second compound 0.00316 µM, first compound 3.16 µM
# [6] = second compound 0.00316 µM, first compound 10 µM
# [7] = second compound 0.01 µM, first compound 0.0316 µM
# [8] = second compound 0.01 µM, first compound 0.1 µM
# [9] = second compound 0.01 µM, first compound 0.316 µM
# [10] = second compound 0.01 µM, first compound 1 µM
# [11] = second compound 0.01 µM, first compound 3.16 µM
# [12] = second compound 0.01 µM, first compound 10 µM
# [13] = second compound 0.0316 µM, first compound 0.0316 µM
# [14] = second compound 0.0316 µM, first compound 0.1 µM
# [15] = second compound 0.0316 µM, first compound 0.316 µM
# [16] = second compound 0.0316 µM, first compound 1 µM
# [17] = second compound 0.0316 µM, first compound 3.16 µM
# [18] = second compound 0.0316 µM, first compound 10 µM
# [19] = second compound 0.1 µM, first compound 0.0316 µM
# [20] = second compound 0.1 µM, first compound 0.1 µM
# [21] = second compound 0.1 µM, first compound 0.316 µM
# [22] = second compound 0.1 µM, first compound 1 µM
# [23] = second compound 0.1 µM, first compound 3.16 µM
# [24] = second compound 0.1 µM, first compound 10 µM
# [25] = second compound 0.316 µM, first compound 0.0316 µM
# [26] = second compound 0.316 µM, first compound 0.1 µM
# [27] = second compound 0.316 µM, first compound 0.316 µM
# [28] = second compound 0.316 µM, first compound 1 µM
# [29] = second compound 0.316 µM, first compound 3.16 µM
# [30] = second compound 0.316 µM, first compound 10 µM
# [31] = second compound 1 µM, first compound 0.0316 µM
# [32] = second compound 1 µM, first compound 0.1 µM
# [33] = second compound 1 µM, first compound 0.316 µM
# [34] = second compound 1 µM, first compound 1 µM
# [35] = second compound 1 µM, first compound 3.16 µM
# [36] = second compound 1 µM, first compound 10 µM
# 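Also: compound exposure lasted seven days before viability was read.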
# 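For viability, T/C in this document: percent of vehicle DMSO treated spheroid viability so 100% = untreated.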
smiles,measurement,setting,value
CC(C)NCC(C(=O)N1CCN(c2ncnc3c2C(C)CC3O)CC1)c1ccc(Cl)cc1 (stereo unspecified) + COc1c(OCCCN2CCOCC2)ccc2c3n(c(=NC(=O)c4cnc(N)nc4)nc12)CCN3,IC50,second compound 0.00316 µM,5660 nM
same,IC50,second compound 0.01 µM,2730 nM
same,IC50,second compound 0.0316 µM,1310 nM
same,IC50,second compound 0.1 µM,< 31.6 nM
same,IC50,second compound 0.316 µM,< 31.6 nM
same,IC50,second compound 1 µM,< 31.6 nM
same,"viability, T/C",[1],94.5%
same,"viability, T/C",[2],99%
same,"viability, T/C",[3],84.8%
same,"viability, T/C",[4],65.5%
same,"viability, T/C",[5],62.5%
same,"viability, T/C",[6],41.5%
same,"viability, T/C",[7],85.5%
same,"viability, T/C",[8],106%
same,"viability, T/C",[9],82%
same,"viability, T/C",[10],61.1%
same,"viability, T/C",[11],54.5%
same,"viability, T/C",[12],39.8%
same,"viability, T/C",[13],84.2%
same,"viability, T/C",[14],67.4%
same,"viability, T/C",[15],68%
same,"viability, T/C",[16],48.5%
same,"viability, T/C",[17],45.5%
same,"viability, T/C",[18],29.5%
same,"viability, T/C",[19],48.3%
same,"viability, T/C",[20],49.4%
same,"viability, T/C",[21],39.3%
same,"viability, T/C",[22],44.3%
same,"viability, T/C",[23],40.8%
same,"viability, T/C",[24],30.4%
same,"viability, T/C",[25],30.6%
same,"viability, T/C",[26],40.4%
same,"viability, T/C",[27],29.8%
same,"viability, T/C",[28],33.7%
same,"viability, T/C",[29],26.7%
same,"viability, T/C",[30],30.3%
same,"viability, T/C",[31],36.6%
same,"viability, T/C",[32],34.7%
same,"viability, T/C",[33],37%
same,"viability, T/C",[34],34.2%
same,"viability, T/C",[35],30.1%
same,"viability, T/C",[36],33.2%
CCN1CCN(Cc2ccc(Nc3ncc(F)c(-c4cc(F)c5nc(C)n(C(C)C)c5c4)n3)nc2)CC1 + COc1c(OCCCN2CCOCC2)ccc2c3n(c(=NC(=O)c4cnc(N)nc4)nc12)CCN3,IC50,second compound 0.00316 µM,296 nM
same,IC50,second compound 0.01 µM,582 nM
same,IC50,second compound 0.0316 µM,91.8 nM
same,IC50,second compound 0.1 µM,< 3.16 nM
same,IC50,second compound 0.316 µM,< 3.16 nM
same,IC50,second compound 1 µM,< 3.16 nM
same,"viability, T/C","second compound 0.00316 µM, first compound 0.00316 µM",80.1%
same,"viability, T/C","second compound 0.00316 µM, first compound 0.01 µM",93.5%
same,"viability, T/C",[1],89.8%
same,"viability, T/C",[2],72%
same,"viability, T/C",[3],49.9%
same,"viability, T/C",[4],43.5%
same,"viability, T/C","second compound 0.01 µM, first compound 0.00316 µM",97.4%
same,"viability, T/C","second compound 0.01 µM, first compound 0.01 µM",74%
same,"viability, T/C",[7],68.6%
same,"viability, T/C",[8],60.4%
same,"viability, T/C",[9],51.8%
same,"viability, T/C",[10],47.1%
same,"viability, T/C","second compound 0.0316 µM, first compound 0.00316 µM",66.5%
same,"viability, T/C","second compound 0.0316 µM, first compound 0.01 µM",66.1%
same,"viability, T/C",[13],60.8%
same,"viability, T/C",[14],47.8%
same,"viability, T/C",[15],38.8%
same,"viability, T/C",[16],30.3%
same,"viability, T/C","second compound 0.1 µM, first compound 0.00316 µM",45.9%
same,"viability, T/C","second compound 0.1 µM, first compound 0.01 µM",40.7%
same,"viability, T/C",[19],37%
same,"viability, T/C",[20],37.7%
same,"viability, T/C",[21],29.6%
same,"viability, T/C",[22],28.4%
same,"viability, T/C","second compound 0.316 µM, first compound 0.00316 µM",36.2%
same,"viability, T/C","second compound 0.316 µM, first compound 0.01 µM",33.8%
same,"viability, T/C",[25],27.1%
same,"viability, T/C",[26],29.6%
same,"viability, T/C",[27],33.1%
same,"viability, T/C",[28],30.8%
same,"viability, T/C","second compound 1 µM, first compound 0.00316 µM",32.6%
same,"viability, T/C","second compound 1 µM, first compound 0.01 µM",35%
same,"viability, T/C",[31],35.6%
same,"viability, T/C",[32],28.5%
same,"viability, T/C",[33],32.7%
same,"viability, T/C",[34],28.6%
Cn1ncc(Cl)c1-c1cc(C(=O)NC(CN)Cc2cccc(F)c2)sc1Cl (stereo unspecified) + COc1c(OCCCN2CCOCC2)ccc2c3n(c(=NC(=O)c4cnc(N)nc4)nc12)CCN3,IC50,second compound 0.00316 µM,1680 nM
same,IC50,second compound 0.01 µM,1180 nM
same,IC50,second compound 0.0316 µM,1040 nM
same,IC50,second compound 0.1 µM,57.2 nM
same,IC50,second compound 0.316 µM,< 31.6 nM
same,IC50,second compound 1 µM,< 31.6 nM
same,"viability, T/C",[1],103%
same,"viability, T/C",[2],114%
same,"viability, T/C",[3],60.6%
same,"viability, T/C",[4],63.7%
same,"viability, T/C",[5],49.3%
same,"viability, T/C",[6],32.8%
same,"viability, T/C",[7],78.7%
same,"viability, T/C",[8],86.6%
same,"viability, T/C",[9],65.5%
same,"viability, T/C",[10],50.9%
same,"viability, T/C",[11],41.1%
same,"viability, T/C",[12],28.5%
same,"viability, T/C",[13],70.7%
same,"viability, T/C",[14],71.3%
same,"viability, T/C",[15],68%
same,"viability, T/C",[16],50.4%
same,"viability, T/C",[17],30.6%
same,"viability, T/C",[18],25%
same,"viability, T/C",[19],55%
same,"viability, T/C",[20],43%
same,"viability, T/C",[21],41.7%
same,"viability, T/C",[22],37.8%
same,"viability, T/C",[23],25.3%
same,"viability, T/C",[24],27%
same,"viability, T/C",[25],35.5%
same,"viability, T/C",[26],30.2%
same,"viability, T/C",[27],30.9%
same,"viability, T/C",[28],28.6%
same,"viability, T/C",[29],26.8%
same,"viability, T/C",[30],20.9%
same,"viability, T/C",[31],33.5%
same,"viability, T/C",[32],26.9%
same,"viability, T/C",[33],34.2%
same,"viability, T/C",[34],34.5%
same,"viability, T/C",[35],32.6%
same,"viability, T/C",[36],21.6%
